Reference: patent publication US20230091047A1 (priority 2019, published 2023)
Read-outs that look alike come from different tables or passages of the source.

Experiments:
[1] = test system: HBV (HepG2.117 cell line, inducibly HBV producing); assay: Anti-HBV activity: intracellular HBV DNA by real-time PCR in HepG2.117 cells after 3 days of treatment; type: cell-based, hepatitis B virus
In short: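 HepG2.117 cells (Tet-off, inducible HBV production) were induced to replicate HBV by doxycycline absence, then treated with serially diluted compound for 3 days. Activity was quantified as intracellular HBV DNA by real-time PCR using an HBV-specific primer set and probe.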

in vitro = type: cell-based; settings: human, HepG2 or HepG2.117 cells, ATPlite, mean value
In short: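 Luminescent ATP quantitation served as the viability endpoint following a 3- or 4-day incubation with test compounds.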

[2] = Hepatitis B virus, HepG2.117, 72 h, HepG2.117 cells, 3 days of treatment, intracellular HBV DNA by real-time PCR; mean value; read-out: EC50 (μM, mean value)
[3] = 3-days incubation (unmarked values)
[4] = Hepatitis B virus, HepG2.117, 72 h, HepG2.117 cells, intracellular HBV DNA by real-time PCR, 3 days of treatment, mean value; read-out: EC50 (μM, mean value)
[5] = 3-days incubation (not marked with *)

Compound	EC50 [1, 2] [µM]	CC50 at 3 days (in vitro; [3]) [µM]	EC50 [1, 4] [µM]	CC50 at 3 days (in vitro; [5]) [µM]	CC50 at 4 days (in vitro; 4-days incubation (values marked with *)) [µM]
COc1ccccc1-n1c(N2CCOCC2)nc2c(c1=O)CCN(C(=O)c1ccc(Cl)c(Cl)c1)C2 [Compound C40, 7-(3,4-dichlorobenzoyl)-3-(2-methoxyphenyl)-2-(morpholin-4-yl)-5,6,7,8-tetrahydropyrido[3,4-d]pyrimidin-4(3H)-one]	11	> 50			
CC(C)Nc1nc2c(c(=O)n1[C@H]1CC[C@@H](S(C)(=O)=O)CC1)C[C@@H](C)N(C(=O)c1ccc(Cl)c(Cl)c1)C2 [Compound C262, (6R)-7-(3,4-dichlorobenzoyl)-3-[cis-4-(methanesulfonyl)cyclohexyl]-6-methyl-2-[(propan-2-yl)amino]-5,6,7,8-tetrahydropyrido[3,4-d]pyrimidin-4(3H)-one]	0.11	22.5			
CNC(=O)c1ccc(-n2c(N[C@@H](C)c3ccc(C)cc3)nc3c(c2=O)C[C@@H](C)N(C(=O)c2ccc(Cl)c(Cl)c2)C3)cc1 [Compound C431]			0.03	20.6	
CNC(=O)c1ccc(-n2c(N[C@H](C)c3cccc(C(F)F)c3)nc3c(c2=O)C[C@@H](C)N(C(=O)c2ccc(Cl)c(Cl)c2)C3)cc1 (single isomer, unassigned) [Compound C660a]			1.3	> 50	
CNC(=O)c1ccc(-n2c(NCc3cccnc3)nc3c(c2=O)C[C@@H](C)N(C(=O)c2ccc(Cl)c(Cl)c2)C3)cc1 [Compound C378]			5.73	> 50	
CNC(=O)c1ccc(-n2c(N[C@H](C)CO)nc3c(c2=O)C[C@@H](C)N(C(=O)c2ccc(Cl)c(Cl)c2)C3)cc1 [Compound C330, 4-[(6R)-7-(3,4-dichlorobenzoyl)-2-{[(2R)-1-hydroxypropan-2-yl]amino}-6-methyl-4-oxo-5,6,7,8-tetrahydropyrido[3,4-d]pyrimidin-3(4H)-yl]-N-methylbenzamide]	0.9	> 50			
Cc1c(C(=O)N2CCc3c(nc(NC(C)C)n(-c4ccc(S(C)(=O)=O)cc4)c3=O)C2)[nH]c2ccccc12 [Compound C147, 3-[4-(methanesulfonyl)phenyl]-7-(3-methyl-1H-indole-2-carbonyl)-2-[(propan-2-yl)amino]-5,6,7,8-tetrahydropyrido[3,4-d]pyrimidin-4(3H)-one]	1.88	> 50			
CNC(=O)c1ccc(-n2c(NC[C@@H](C)c3cccc(OC)c3)nc3c(c2=O)C[C@@H](C)N(C(=O)c2ccc(Cl)c(Cl)c2)C3)cc1 (single isomer, unassigned) [Compound C436b]			0.36	22.3	
CNC(=O)c1ccc(-n2c(NCc3n[nH]c(=O)[nH]3)nc3c(c2=O)C[C@@H](C)N(C(=O)c2ccc(Cl)c(Cl)c2)C3)cc1 [Compound C600]			> 25	> 50	
CC(C)Nc1nc2c(c(=O)n1-c1ccc(S(C)(=O)=O)cc1)CCN(C(=O)c1ccc3occc3c1)C2 [Compound C132, 7-(1-benzofuran-5-carbonyl)-3-[4-(methanesulfonyl)phenyl]-2-[(propan-2-yl)amino]-5,6,7,8-tetrahydropyrido[3,4-d]pyrimidin-4(3H)-one]	0.7	> 50			
CNC(=O)c1ccc(-n2c(NCc3nnc4n3CCC4)nc3c(c2=O)C[C@@H](C)N(C(=O)c2ccc(Cl)c(Cl)c2)C3)cc1 [Compound C483]			> 12.5	> 25	
CNC(=O)c1ccc(-n2c(NC(C)C)nc3c(c2=O)C[C@@H](C)N(C(=O)c2ccc(Cl)c(Cl)c2)C3)cn1 [Compound C265]	0.18	> 50			
CCOC(=O)c1ccc(-n2c(NC(CCO)C3CC3)nc3c(c2=O)C[C@@H](C)N(C(=O)c2ccc(Cl)c(Cl)c2)C3)cc1 (stereo partly drawn) [Compound C230, ethyl 4-[(6R)-2-[(1-cyclopropyl-3-hydroxypropyl)amino]-7-(3,4-dichlorobenzoyl)-6-methyl-4-oxo-5,6,7,8-tetrahydropyrido[3,4-d]pyrimidin-3(4H)-yl]benzoate]	1.7	> 50			
CNC(=O)c1ccc(-n2c(NC(C)C)nc3c(c2=O)C[C@@H](C)N(C(=O)c2ccc(F)c(C#N)c2)C3)cc1 [Compound C641]			1.99	> 50	
CNC(=O)c1ccc(-n2c(NC(C)C)nc3c(c2=O)C[C@@H](C)N(C(=O)c2ccc(C)c(Cl)c2)C3)cc1 [Compound C514]			0.61	> 50	
COc1ccccc1-n1c(NCc2ccccn2)nc2c(c1=O)CCN(C(=O)c1ccc(Cl)c(Cl)c1)C2 [Compound C12, 7-(3,4-dichlorobenzoyl)-3-(2-methoxyphenyl)-2-{[(pyridin-2-yl)methyl]amino}-5,6,7,8-tetrahydropyrido[3,4-d]pyrimidin-4(3H)-one]	5.95				> 50
CNC(=O)c1ccc(-n2c(NCCCc3nc(=O)[nH][nH]3)nc3c(c2=O)C[C@@H](C)N(C(=O)c2ccc(Cl)c(Cl)c2)C3)cc1 [Compound C599]			> 25	> 50	
CNC(=O)c1ccc(-n2c(NCC3CC3C)nc3c(c2=O)C[C@@H](C)N(C(=O)c2ccc(Cl)c(Cl)c2)C3)cc1 (stereo partly shown) [Compound C547]			0.97	47.2	
CNC(=O)c1ccc(-n2c(N[C@@H](C)C3CCC3)nc3c(c2=O)C[C@@H](C)N(C(=O)c2ccc(Cl)c(Cl)c2)C3)cc1 (single isomer, unassigned) [Compound C406b]			0.16	24.5	
C=CCNc1nc2c(c(=O)n1CC=C)CCN(C(=O)c1ccc(Cl)c(Cl)c1)C2 [Compound C89, 7-(3,4-dichlorobenzoyl)-3-(prop-2-en-1-yl)-2-[(prop-2-en-1-yl)amino]-5,6,7,8-tetrahydropyrido[3,4-d]pyrimidin-4(3H)-one]	8.76	> 50			
CNC(=O)c1ccc(-n2c(N3CCC[C@H]3c3ccccc3)nc3c(c2=O)C[C@@H](C)N(C(=O)c2ccc(Cl)c(Cl)c2)C3)cc1 (single isomer, unassigned) [Compound C401b]			0.83	18.2	
CC(C)Nc1nc2c(c(=O)n1-c1ccc(C(=O)NCCN)cc1)C[C@@H](C)N(C(=O)c1ccc(Cl)c(Cl)c1)C2 [Compound C197, N-(2-aminoethyl)-4-[(6R)-7-(3,4-dichlorobenzoyl)-6-methyl-4-oxo-2-[(propan-2-yl)amino]-5,6,7,8-tetrahydropyrido[3,4-d]pyrimidin-3(4H)-yl]benzamide]	1.81	> 50			
C[C@@H]1Cc2c(nc(N[C@H](C)c3ccc(OC(F)(F)F)cc3)n(-c3ccc(-n4cccn4)cc3)c2=O)CN1C(=O)c1ccc(Cl)c(Cl)c1 (single isomer, unassigned) [Compound C463a]			0.24	> 50	
CC(C)Nc1nc2c(c(=O)n1-c1ccc(S(C)(=O)=O)cc1)CCN(C(=O)c1cc3ccc(F)cc3[nH]1)C2 [Compound C137, 7-(6-fluoro-1H-indole-2-carbonyl)-3-[4-(methanesulfonyl)phenyl]-2-[(propan-2-yl)amino]-5,6,7,8-tetrahydropyrido[3,4-d]pyrimidin-4(3H)-one]	0.3	> 50			
CNC(=O)c1ccc(-n2c(NC(C)C)nc3c(c2=O)C[C@@H](C)N(C(=O)c2cc(Cl)c(Cl)cn2)C3)cc1 [Compound C674]			2.04	> 50	
CNC(=O)c1ccc(-n2c(NC(C)C)nc3c(c2=O)C[C@@H](C)N(C(=O)c2cc4ccc(OC)cc4n2C)C3)cc1 [Compound C516]			2.68	> 50	
